For 5 molecules, % of inhibition, % of control and % binding results are on record in ChEMBL document CHEMBL5465560, “Selectivity Literature for EUbOPEN Chemogenomic Library” (2024).

Test [1] has as its target T1, Eukaryotic elongation factor 2 kinase (Homo sapiens) (UniProt O00418).
T1 sequence (whole entry): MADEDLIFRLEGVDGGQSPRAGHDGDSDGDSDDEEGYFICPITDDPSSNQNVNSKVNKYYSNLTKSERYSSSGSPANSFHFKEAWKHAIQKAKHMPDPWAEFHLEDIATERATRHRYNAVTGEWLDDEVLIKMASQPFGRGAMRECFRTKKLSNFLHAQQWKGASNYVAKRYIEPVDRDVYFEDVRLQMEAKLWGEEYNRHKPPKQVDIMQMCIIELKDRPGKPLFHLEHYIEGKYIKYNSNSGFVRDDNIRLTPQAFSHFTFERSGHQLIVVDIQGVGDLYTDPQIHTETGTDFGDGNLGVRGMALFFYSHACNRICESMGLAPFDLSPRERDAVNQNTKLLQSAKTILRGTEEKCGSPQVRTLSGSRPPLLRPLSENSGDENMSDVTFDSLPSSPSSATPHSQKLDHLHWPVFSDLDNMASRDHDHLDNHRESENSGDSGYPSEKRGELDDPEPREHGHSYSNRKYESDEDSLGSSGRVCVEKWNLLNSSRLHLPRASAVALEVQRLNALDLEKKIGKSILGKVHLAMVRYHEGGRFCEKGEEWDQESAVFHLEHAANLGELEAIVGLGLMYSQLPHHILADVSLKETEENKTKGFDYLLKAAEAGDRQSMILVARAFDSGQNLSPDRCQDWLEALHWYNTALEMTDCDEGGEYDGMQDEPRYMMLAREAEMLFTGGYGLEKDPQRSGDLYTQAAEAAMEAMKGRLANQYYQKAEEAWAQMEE
Description: Selectivity interaction (Upstate Kinase Profiler service (Millipore)) EUB0000056c EEF2K. To be noted: at 1 µM.

The target of test [2] is Tyrosine-protein kinase CSK (Homo sapiens) (UniProt P41240). Description: Selectivity interaction (Upstate Kinase Profiler service (Millipore)) EUB0000056c CSK. To be noted: at 1 µM.
For test [3], the target named is T2, Dual specificity mitogen-activated protein kinase kinase 7 (Homo sapiens) (UniProt O14733).
T2 sequence (whole entry): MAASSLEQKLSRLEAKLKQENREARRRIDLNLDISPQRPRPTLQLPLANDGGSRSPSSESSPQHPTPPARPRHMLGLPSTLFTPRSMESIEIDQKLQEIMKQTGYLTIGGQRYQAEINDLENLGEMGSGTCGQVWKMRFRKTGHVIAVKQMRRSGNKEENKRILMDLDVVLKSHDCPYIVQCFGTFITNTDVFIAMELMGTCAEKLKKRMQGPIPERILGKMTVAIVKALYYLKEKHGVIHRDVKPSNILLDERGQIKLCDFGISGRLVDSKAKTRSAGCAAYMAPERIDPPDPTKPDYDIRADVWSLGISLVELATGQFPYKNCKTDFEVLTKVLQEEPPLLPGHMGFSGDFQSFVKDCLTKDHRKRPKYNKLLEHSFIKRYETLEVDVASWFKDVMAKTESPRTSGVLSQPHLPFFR
As to the kind of experiment: Selectivity interaction (ProQinase) EUB0000171b MAP2K7.

Test [4] addresses ALK tyrosine kinase receptor (Homo sapiens, UniProt Q9UM73). Description: Selectivity interaction (Kinase panel (Z-LYTE Assay)) EUB0001632a ALK. Particulars: at 10 µM.
The target in test [5] is Wee1-like protein kinase (Homo sapiens) (UniProt P30291). As to the kind of experiment: Selectivity interaction (KinomeScan (DiscoverX)) EUB0000229b WEE1. To be noted: at 10 µM.
Test [6] concerns the target T3, PAN2-PAN3 deadenylation complex subunit PAN3 (Homo sapiens) (UniProt Q58A45).
T3 sequence (whole entry): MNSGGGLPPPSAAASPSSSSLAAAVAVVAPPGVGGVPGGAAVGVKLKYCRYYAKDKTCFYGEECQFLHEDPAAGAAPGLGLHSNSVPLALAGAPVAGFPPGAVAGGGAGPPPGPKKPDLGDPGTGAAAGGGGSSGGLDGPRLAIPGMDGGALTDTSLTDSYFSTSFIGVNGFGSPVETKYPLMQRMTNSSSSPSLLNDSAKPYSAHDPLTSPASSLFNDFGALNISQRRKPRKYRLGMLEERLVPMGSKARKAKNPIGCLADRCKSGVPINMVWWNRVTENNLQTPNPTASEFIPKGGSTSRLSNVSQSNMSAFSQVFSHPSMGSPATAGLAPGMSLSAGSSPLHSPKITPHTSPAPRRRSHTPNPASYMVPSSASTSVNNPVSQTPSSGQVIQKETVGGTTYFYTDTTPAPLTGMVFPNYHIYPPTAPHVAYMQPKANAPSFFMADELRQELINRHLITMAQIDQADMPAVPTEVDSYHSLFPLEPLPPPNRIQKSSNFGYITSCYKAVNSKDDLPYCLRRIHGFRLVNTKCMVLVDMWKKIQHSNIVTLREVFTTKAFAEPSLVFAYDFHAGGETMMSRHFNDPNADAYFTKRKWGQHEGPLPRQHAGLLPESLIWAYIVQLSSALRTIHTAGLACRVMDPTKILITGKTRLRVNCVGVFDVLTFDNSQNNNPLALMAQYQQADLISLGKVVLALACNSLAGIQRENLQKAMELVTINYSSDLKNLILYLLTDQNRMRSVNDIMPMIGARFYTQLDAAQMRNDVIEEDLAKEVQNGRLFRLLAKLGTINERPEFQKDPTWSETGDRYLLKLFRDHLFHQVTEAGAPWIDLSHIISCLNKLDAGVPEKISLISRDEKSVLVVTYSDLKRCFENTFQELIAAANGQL
Description: Selectivity interaction (ActivX KiNativ screen (ex vivo kinase selectivity in human PBMCs)) EUB0001619a PAN3. The format is cell-based. Particulars: PBMC, at 1 µM.

For test [7], the target named is Serine/threonine-protein kinase 38-like (Homo sapiens) (UniProt Q9Y2H1). Description: Selectivity interaction (KinomeScan (DiscoverX)) EUB0001619a STK38L. Particulars: at 1 µM.
Sequence of Serine/threonine-protein kinase 38-like (Homo sapiens) (Q9Y2H1 2-464 limits assumed): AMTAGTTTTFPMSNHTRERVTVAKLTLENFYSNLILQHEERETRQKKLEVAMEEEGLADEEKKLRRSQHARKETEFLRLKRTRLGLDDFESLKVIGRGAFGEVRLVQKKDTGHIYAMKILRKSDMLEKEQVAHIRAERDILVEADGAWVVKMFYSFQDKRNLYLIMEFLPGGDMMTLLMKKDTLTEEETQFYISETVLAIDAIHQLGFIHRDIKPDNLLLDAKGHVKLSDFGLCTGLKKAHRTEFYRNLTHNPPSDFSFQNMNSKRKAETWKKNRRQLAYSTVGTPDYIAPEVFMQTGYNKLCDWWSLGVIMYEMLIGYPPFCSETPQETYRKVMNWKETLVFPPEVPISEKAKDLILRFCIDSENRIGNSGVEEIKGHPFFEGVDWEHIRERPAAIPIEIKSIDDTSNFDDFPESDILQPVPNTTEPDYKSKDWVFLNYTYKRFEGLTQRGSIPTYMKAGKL

Sequence of ALK tyrosine kinase receptor (Q9UM73 19-1620 limits assumed): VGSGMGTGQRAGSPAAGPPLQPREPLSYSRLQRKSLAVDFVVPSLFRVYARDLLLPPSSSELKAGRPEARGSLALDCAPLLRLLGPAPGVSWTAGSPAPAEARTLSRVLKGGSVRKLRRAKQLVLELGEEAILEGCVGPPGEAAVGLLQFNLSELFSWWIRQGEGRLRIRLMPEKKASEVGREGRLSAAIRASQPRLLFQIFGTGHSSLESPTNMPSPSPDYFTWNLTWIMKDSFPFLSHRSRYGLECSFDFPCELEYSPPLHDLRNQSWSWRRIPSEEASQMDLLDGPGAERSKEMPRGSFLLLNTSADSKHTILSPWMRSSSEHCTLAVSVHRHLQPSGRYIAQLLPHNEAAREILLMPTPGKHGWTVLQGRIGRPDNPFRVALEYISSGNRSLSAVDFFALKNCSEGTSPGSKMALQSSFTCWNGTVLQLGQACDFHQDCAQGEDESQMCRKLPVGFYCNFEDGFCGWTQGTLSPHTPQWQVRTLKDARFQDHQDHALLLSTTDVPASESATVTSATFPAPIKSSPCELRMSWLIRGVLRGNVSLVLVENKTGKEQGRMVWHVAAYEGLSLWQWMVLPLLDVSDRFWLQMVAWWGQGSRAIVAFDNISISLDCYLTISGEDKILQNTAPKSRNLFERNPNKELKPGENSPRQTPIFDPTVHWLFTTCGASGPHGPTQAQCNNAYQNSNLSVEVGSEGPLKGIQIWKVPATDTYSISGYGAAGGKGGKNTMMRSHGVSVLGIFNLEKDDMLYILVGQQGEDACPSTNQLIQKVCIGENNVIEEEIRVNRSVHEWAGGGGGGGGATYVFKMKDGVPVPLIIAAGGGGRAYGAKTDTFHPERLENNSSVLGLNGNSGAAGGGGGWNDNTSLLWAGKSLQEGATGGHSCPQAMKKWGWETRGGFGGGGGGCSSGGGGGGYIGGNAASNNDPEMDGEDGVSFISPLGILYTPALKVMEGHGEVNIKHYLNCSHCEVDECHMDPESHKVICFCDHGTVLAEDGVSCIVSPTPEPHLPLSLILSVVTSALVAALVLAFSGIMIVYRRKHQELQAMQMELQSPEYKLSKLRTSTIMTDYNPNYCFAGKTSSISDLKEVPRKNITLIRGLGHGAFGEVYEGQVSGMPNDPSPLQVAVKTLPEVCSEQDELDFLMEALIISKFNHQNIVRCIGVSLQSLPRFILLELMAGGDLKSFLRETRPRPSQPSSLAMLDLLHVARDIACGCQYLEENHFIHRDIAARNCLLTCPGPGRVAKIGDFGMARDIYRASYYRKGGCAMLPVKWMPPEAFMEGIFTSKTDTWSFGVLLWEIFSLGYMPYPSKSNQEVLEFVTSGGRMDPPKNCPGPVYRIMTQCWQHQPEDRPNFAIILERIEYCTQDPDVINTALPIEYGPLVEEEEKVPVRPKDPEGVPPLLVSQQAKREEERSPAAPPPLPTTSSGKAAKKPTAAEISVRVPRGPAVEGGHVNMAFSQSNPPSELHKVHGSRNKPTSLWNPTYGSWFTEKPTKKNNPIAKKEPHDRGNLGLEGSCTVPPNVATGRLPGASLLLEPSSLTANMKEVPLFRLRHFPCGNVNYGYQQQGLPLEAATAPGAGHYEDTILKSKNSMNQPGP
Sequence of Wee1-like protein kinase (Homo sapiens) (P30291 whole entry, looked up): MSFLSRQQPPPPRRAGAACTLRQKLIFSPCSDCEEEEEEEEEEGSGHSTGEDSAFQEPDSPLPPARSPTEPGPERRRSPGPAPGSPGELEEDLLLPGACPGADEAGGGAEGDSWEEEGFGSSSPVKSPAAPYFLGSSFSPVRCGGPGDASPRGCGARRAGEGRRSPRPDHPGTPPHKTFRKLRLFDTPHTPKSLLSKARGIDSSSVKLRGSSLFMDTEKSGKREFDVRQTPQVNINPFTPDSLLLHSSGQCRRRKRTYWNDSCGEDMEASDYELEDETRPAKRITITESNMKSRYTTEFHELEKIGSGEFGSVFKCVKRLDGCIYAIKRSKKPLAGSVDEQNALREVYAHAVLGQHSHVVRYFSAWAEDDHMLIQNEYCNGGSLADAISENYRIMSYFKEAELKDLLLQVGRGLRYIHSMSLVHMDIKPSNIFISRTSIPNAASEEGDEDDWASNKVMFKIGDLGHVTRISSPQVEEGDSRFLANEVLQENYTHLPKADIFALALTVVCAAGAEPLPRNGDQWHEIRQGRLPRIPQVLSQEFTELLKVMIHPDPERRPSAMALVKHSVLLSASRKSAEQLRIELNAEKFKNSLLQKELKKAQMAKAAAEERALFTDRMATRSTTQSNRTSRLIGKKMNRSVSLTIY
Sequence of Tyrosine-protein kinase CSK (Homo sapiens) (P41240 2-450 limits assumed): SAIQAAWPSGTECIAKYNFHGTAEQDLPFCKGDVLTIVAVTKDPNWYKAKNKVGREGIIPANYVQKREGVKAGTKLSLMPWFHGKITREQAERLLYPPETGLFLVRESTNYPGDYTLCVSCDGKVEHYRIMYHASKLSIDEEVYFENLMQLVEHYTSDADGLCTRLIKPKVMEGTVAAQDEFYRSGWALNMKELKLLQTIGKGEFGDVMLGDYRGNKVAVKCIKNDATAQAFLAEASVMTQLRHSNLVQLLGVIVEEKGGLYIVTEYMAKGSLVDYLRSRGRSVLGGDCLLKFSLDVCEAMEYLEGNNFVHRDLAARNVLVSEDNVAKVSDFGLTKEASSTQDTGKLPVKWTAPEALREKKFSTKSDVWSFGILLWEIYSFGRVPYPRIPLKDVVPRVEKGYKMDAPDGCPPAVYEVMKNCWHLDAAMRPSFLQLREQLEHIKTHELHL

`Cc1ccc(-c2ccc3c(ccc4sc5c(c43)NC[C@@H](C)NC5=O)n2)cn1`: the % of inhibition in test [1] was -6%; in test [2], 5%.
Regarding `C=CC(=O)Nc1cccc(C(=O)Nc2ccc(Nc3cc(-c4[nH]c(SC)nc4C)ccn3)cc2)c1`, the % of control stood at 45% in test [3] (at 1 µM) and 39% in test [3] (at 5 µM).
`Cn1cc(-n2cnc3c(NCc4nc5cc(Cl)c(Cl)cc5[nH]4)nc(N4CCOCC4)nc32)cn1`: in test [4], the % of control is -0.105%.
`COc1cc(N(C)c2ccnc3ccc(C(F)(F)F)cc23)cc(OC)c1OC` registered a % binding in test [5] of 91%.
In the case of `N#Cc1cccc(-c2c[nH]c3ncnc(N4CCOCC4)c23)c1`, the % of inhibition in test [6] came to 15%. Further, the % of control in test [7] was 100%.
